Test results as given in PubChem BioAssay AID1996.
≈ marks a conversion by molar mass, not a printed value.

conditions: buffer; pH 7.4; 200.0 µM

SMILES | solubility kinetic
CCCCN1C2=NC(c3ccccc3)CN2c2ccccc21.Cl (stereo not given) | 44.1 µg/mL
COc1ccc(NC(=S)NCCNC(C)=O)cc1 | 35.4 µg/mL (≈ 132 µM)
CC(=O)N(Cc1nc2sc(C)c(C)c2c(=O)[nH]1)C1CCCC1 | 19.5 µg/mL (≈ 61 µM)
CN(CCN1CCOCC1)Cc1nc(-c2ccccc2)no1 | > 45.4 µg/mL
Cc1nc2ccc(NC(=O)c3cnc(Cl)c(Cl)c3)cc2s1 | 0.3 µg/mL (≈ 0.887 µM)
CCc1sc(C(=O)Nc2ccccc2N2CCOCC2)cc1C | 2.5 µg/mL (≈ 7.57 µM)
CC(OC(=O)C1CC1)C(=O)Nc1ncc(Cl)cc1Cl (stereo not given) | > 45.5 µg/mL
CC(C)c1ccc(Nc2c([N+](=O)[O-])c(=O)n(C)c3ccccc23)cc1 | < 0.2 µg/mL
Cc1cc([N+](=O)[O-])nn1CC(=O)NCCCN1CCOCC1 | > 46.7 µg/mL
COC1CCCN(Cc2nc(Cc3ccccc3F)no2)C1 (stereo not given) | 37.9 µg/mL (≈ 124 µM)
CCc1ccc(NC(=O)CCc2ccc(C)o2)cc1 | 5.3 µg/mL (≈ 20.6 µM)
CCC(=O)N(Cc1cc(=O)[nH]c2ccccc12)c1ccc(C)cc1 | > 48.1 µg/mL
Cc1cc(C)nc(NC(=O)c2c(Cl)cccc2Cl)n1 | > 44.4 µg/mL
Cc1cc(C(=O)CCl)c(C)n1Cc1ccco1 | > 37.8 µg/mL
COC(=O)c1sccc1NC(=O)c1ccc(C#N)cc1 | 1.8 µg/mL (≈ 6.29 µM)
Cc1ccc(Nc2ncc3c(n2)CC(C)CC3=O)c(C)c1 (stereo not given) | > 42.2 µg/mL
N#Cc1ccc2c(c1)nc1ccccn12 | > 29 µg/mL
CC(O)C(NC=C1C(=O)OC(C)(C)OC1=O)C(=O)O (stereo not given) | 39.4 µg/mL (≈ 144 µM)
Cc1cc(C)c(NC(=O)Nc2ccccc2)c(C)n1 | 34.3 µg/mL (≈ 134 µM)
Cc1cc(C)nc(SCC(=O)OCC(=O)Nc2ccccc2)n1 | > 49.7 µg/mL
CCOC(=O)C(C)Oc1c(C(=O)OC)sc2ncccc12 (stereo not given) | 38.2 µg/mL (≈ 123 µM)

SMILES | solubility kinetic
CCOc1ccc(/C=C/c2[nH]c(=O)[nH]c(=O)c2[N+](=O)[O-])cc1 | 13.2 µg/mL (≈ 43.5 µM)
CC(C)C(=O)Nc1ccc([N+](=O)[O-])c(C(F)(F)F)c1 | > 41.4 µg/mL
Cc1ccccc1NC(=O)Nc1ccc2c(c1)OCO2 | 0.5 µg/mL (≈ 1.85 µM)
c1ccc2nc(-c3ccc(-n4ccnc4)cc3)ccc2c1 | 6.2 µg/mL (≈ 22.9 µM)
Cc1cnc(C(=O)OCC(=O)c2ccc[nH]2)cn1 | > 36.8 µg/mL
S=C(c1ccc(-c2ccc(Br)cc2)o1)N1CCOCC1 | < 0.8 µg/mL
CCN1CC(CN(C)Cc2nc(-c3ccc(Cl)cc3)no2)CC1=O (stereo not given) | > 52.3 µg/mL
Cl.c1ccc2c3c(c(CN4CCCCC4)cc2c1)COC3 | > 45.6 µg/mL
O=C(CSc1ncccn1)NCc1cccs1 | > 39.8 µg/mL
O=[N+]([O-])c1cccc(CSc2cccc[n+]2[O-])c1 | > 39.3 µg/mL
COc1ccccc1CCNC(=O)c1ccc2nc[nH]c2c1 | > 44.3 µg/mL
CCN(C(=O)c1cccs1)C1CCS(=O)(=O)C1 (stereo not given) | > 41 µg/mL
O=C1C[C@H](NC(=O)OCc2ccccc2)CO1 | > 35.3 µg/mL
COc1ccc(CNCC(O)(c2ccccc2)c2ccccc2)cc1 | > 50 µg/mL
COc1ccc(N(C)S(=O)(=O)c2cccc(C(=O)OCC(=O)N(C)c3ccccc3)c2)cc1 | 7.9 µg/mL (≈ 16.9 µM)
O=[N+]([O-])c1ccc(CNc2cccc(F)c2)s1 | 17.6 µg/mL (≈ 69.8 µM)
Cc1ccc(NS(=O)(=O)N2CCOCC2)cc1Cl | > 43.6 µg/mL
CC(C)Cn1c(N)c(C(=O)COC(=O)c2cc3ccccc3cc2O)c(=O)n(C)c1=O | 4.5 µg/mL (≈ 10.6 µM)
CCCCNS(=O)(=O)c1ccc2nc(SCC(N)=O)[nH]c2c1 | > 51.4 µg/mL
O=C1ON=C(c2ccc([N+](=O)[O-])cc2)/C1=C/c1ccccc1O | > 46.5 µg/mL
CCCn1c(=O)c(C(=O)Nc2ccccc2C)c(O)c2ccccc21 | < 0.4 µg/mL

SMILES | solubility kinetic
Nc1nc(COc2ccccc2C=O)nc(Nc2ccccc2)n1 | 32.5 µg/mL (≈ 101 µM)
O=C1Nc2ccccc2C1C(C[N+](=O)[O-])c1ccccc1 (stereo not given) | > 42.3 µg/mL
O=c1cc(-c2ccccc2O)nc(-c2ccccc2)[nH]1 | 0.8 µg/mL (≈ 3.03 µM)
Cc1nnc(SCCCCSc2nnc(C)c(=O)[nH]2)[nH]c1=O | > 51.1 µg/mL
CC(O)CNCc1ccccc1C(F)(F)F.Cl (stereo not given) | > 40.5 µg/mL
Cc1ccc(NC(=O)CN(C)Cc2ccc(Cl)cc2)cc1 | 20.6 µg/mL (≈ 68 µM)
Cc1ccc(CNC(=O)CCSCc2ccc(C)cc2)cc1 | 14.3 µg/mL (≈ 45.6 µM)
CN1CCC(O)(c2cccs2)C(C(=O)c2cccs2)C1 (stereo not given) | 42.1 µg/mL (≈ 137 µM)
COc1ccc(C)cc1NC(=O)CN1CCCC1c1ccc2c(c1)OCCCO2 (stereo not given) | 13.6 µg/mL (≈ 34.3 µM)
CN(C(=O)c1cccs1)C1(C)CCS(=O)(=O)C1 (stereo not given) | > 41 µg/mL
CC(C)CN1C(=O)NC2(CCCc3ccccc32)C1=O (stereo not given) | > 40.9 µg/mL
CCOc1ccccc1NS(=O)(=O)c1ccc2[nH]c(=O)ccc2c1 | 48.3 µg/mL (≈ 140 µM)
COc1cccc(N/C=C/C(=O)c2ccc(OC)c(OC)c2)c1 | 2.3 µg/mL (≈ 7.34 µM)
CC(=O)CC1(O)C(=O)Nc2ccccc21 (stereo not given) | 27.6 µg/mL (≈ 134 µM)
O=C(Nc1ccncc1)c1ccc2ncsc2c1 | 35.6 µg/mL (≈ 139 µM)
CCN(c1ccccc1)S(=O)(=O)c1ccc(C(=O)N(C)Cc2cccs2)cc1 | 20.9 µg/mL (≈ 50.4 µM)
CCOC(=O)NC(=S)Nc1ccc(C(C)(C)C)cc1 | 1.1 µg/mL (≈ 3.92 µM)
CCC(C)NS(=O)(=O)c1ccc(NC(=O)c2cccs2)cc1 (stereo not given) | 2.6 µg/mL (≈ 7.68 µM)
Cc1ccc(CNCC(O)c2ccccc2)s1.Cl (stereo not given) | > 42.6 µg/mL
C[N+]1(CCOC(=O)C2(c3ccccc3)CCCC2)CCCCC1 | > 47.5 µg/mL
CCCCNc1c([N+](=O)[O-])ncn1C | > 29.7 µg/mL

SMILES | solubility kinetic
COc1ccccc1C(C)NCC(=O)NCc1ccc(C)cc1 (stereo not given) | > 46.9 µg/mL
O=c1cccc2n1CC1CNCC2C1 (stereo not given) | > 28.5 µg/mL
CN(C)S(=O)(=O)c1cccc(NC(=O)c2c[nH]c3ccccc23)c1 | 42.6 µg/mL (≈ 124 µM)
COc1ccc(OC)c(NC(=O)CCOc2cccc(C)c2)c1 | 23 µg/mL (≈ 72.9 µM)
CCOC(=O)CC(=O)c1[nH]c(C)c(C(=O)OCC)c1C | 14.3 µg/mL (≈ 50.8 µM)
CC1CC(C)(C)N2C(=O)C(=C(C#N)C#N)c3cccc1c32 (stereo not given) | 1.2 µg/mL (≈ 4.33 µM)
Cl.O=c1cc(CN2CCNCC2)nc2sccn12 | 44 µg/mL
Nc1ccccc1SCC(=O)Nc1nccs1 | > 39.8 µg/mL
Cc1ccc(OCC(=O)O/N=C(\N)c2cccc([N+](=O)[O-])c2)cc1C | 1.8 µg/mL (≈ 5.24 µM)
COc1cc(CC(=O)OCC(=O)N(C)C2CCCCC2)cc(OC)c1OC | 52.4 µg/mL (≈ 138 µM)
Cc1ccccc1OCC(=O)NCCCNC(=O)c1ccco1 | 43.9 µg/mL (≈ 139 µM)
O=C(Nc1nccs1)c1c(O)c2c(n(Cc3ccco3)c1=O)CCCC2 | < 0.3 µg/mL
CCOCCCn1cnc2c3cc(F)ccc3n(C)c2c1=O | 10.4 µg/mL (≈ 34.3 µM)
Cc1cccc(OCCN2CCOCC2)c1C | 24.4 µg/mL (≈ 104 µM)
COc1ccccc1NC1=C(Cl)C(=O)OC1OC(=O)c1ccco1 (stereo not given) | 47.3 µg/mL (≈ 135 µM)
CN1C(=O)/C(=C/C=C2\SCCN2C)N(C)C1=S | 8 µg/mL (≈ 29.7 µM)
CC1=CC(C)(C)N2C(=O)C(=Nc3ccc(O)cc3)c3cccc1c32 | 9.4 µg/mL (≈ 29.5 µM)
Cl.c1ccc2c(N3CCNCC3)cccc2c1 | > 37.3 µg/mL
O=[N+]([O-])C1=CC=C2C(=NC3(CCCCC3)N2O)C1=NC1CCCCC1 | 24.6 µg/mL (≈ 71.4 µM)

Further lines, results first:

solubility kinetic | SMILES
1.6 µg/mL (≈ 4.76 µM) | COc1ccc(CCNC(=O)Nc2ccc(F)cc2F)cc1OC
> 52 µg/mL | COc1cc(C#N)c(NC(=O)CN2CCC(C(N)=O)CC2)cc1OC
49.5 µg/mL (≈ 136 µM) | CS(=O)(=O)N(CC(=O)O)c1ccc(C23CC4CC(CC(C4)C2)C3)cc1
40.6 µg/mL (≈ 137 µM) | O=C(O)CC1(CC(=O)N2CCC(C(=O)O)CC2)CCCC1
35.6 µg/mL (≈ 105 µM) | O=C(c1ccc(Cl)cc1)N1CCN(c2cccc3[nH]ccc23)CC1
> 46 µg/mL | NC(=O)C1CCN(C(=O)CCC(=O)c2ccc(F)cc2)CC1
12.1 µg/mL (≈ 47.2 µM) | O=C(NC1CCCC1)C(=O)c1c[nH]c2ccccc12
< 0.7 µg/mL | O=C(C1CC1)N1CCc2sccc2C1c1ccc(Cl)cc1 (stereo not given)
> 29 µg/mL | CC(=O)NCc1ccc(C(=O)O)cc1
6.2 µg/mL (≈ 16.4 µM) | O=C(CN1C(=O)NC(c2ccccc2)(c2ccccc2)C1=O)N1CCCCC1
13.7 µg/mL (≈ 43.9 µM) | CC(=O)c1cccc(NCC(=O)c2ccc(C)c([N+](=O)[O-])c2)c1
46.9 µg/mL (≈ 143 µM) | O=C(CSc1nc(C2CC2)nc2ccccc12)N1CCCCC1
30.4 µg/mL (≈ 74.1 µM) | CN(CC(=O)Nc1ccc(F)cc1)C(=O)c1ccccc1OCc1ccc(F)cc1
34.2 µg/mL (≈ 149 µM) | O=C(NCc1ccc(F)cc1)c1ccncc1
> 41.2 µg/mL | Cc1ccnc(NC(=O)CCC(=O)c2cccs2)c1
> 38.9 µg/mL | CCOc1ccc(C(=O)NCCc2cnc[nH]2)cc1
24.4 µg/mL (≈ 70.8 µM) | CC(C)CC(NC(=O)C1CCCCC1)C(=O)NC(C)c1ccccc1 (stereo not given)
> 55.9 µg/mL | O=C(O)CCC(=O)Nc1ccc(Oc2ncnc3cc(Cl)ccc23)nc1
> 41.6 µg/mL | CN1CCN(C(=S)C(=O)NCc2ccccc2)CC1

solubility kinetic | SMILES
> 45.6 µg/mL | O=C(CSc1nnc2ccccn12)c1ccc(Cl)cc1
48.8 µg/mL (≈ 142 µM) | CC(=O)c1ccc(NC(=O)CCNC(=O)c2ccccc2Cl)cc1
1.1 µg/mL (≈ 3.69 µM) | O=C(c1ccc(Cl)cc1)N1CCn2c1nc1ccccc12
49.8 µg/mL | CCCOc1ccc(C(=O)OCCN2CCCCC2)c(O)c1.Cl
> 44.5 µg/mL | O=C(NC(c1ccccc1)c1ccccc1)N1CCOCC1
> 55.1 µg/mL | CCn1c(CCC(=O)O)nc2cc(S(=O)(=O)N3CCOCC3)ccc21
> 40.4 µg/mL | COC(=O)c1ccccc1N1CCS(=O)(=O)CC1
40.1 µg/mL (≈ 141 µM) | O=C(NCCN1CCOCC1)Nc1cccc(Cl)c1
< 0.4 µg/mL | CCCCOC(=O)c1ccc(NC(=O)C(=O)NCc2ccco2)cc1
16.4 µg/mL (≈ 50.2 µM) | COc1ccccc1C1CCN(Cc2cccc([N+](=O)[O-])c2)CC1
2.9 µg/mL (≈ 12.8 µM) | Cn1cccc1/C=C(/C#N)c1ccc(F)cc1
4.6 µg/mL (≈ 14.6 µM) | CCc1noc(C)c1C(=O)OCC(=O)N1CCc2ccccc21
7.5 µg/mL (≈ 19.1 µM) | O=C(NCC(c1ccco1)N1CCCC1)c1sc2cc(F)ccc2c1Cl (stereo not given)
54.7 µg/mL (≈ 140 µM) | COc1ccc(C(=O)O)cc1S(=O)(=O)Nc1ccc(N2CCCCC2)cc1
5.9 µg/mL (≈ 17.3 µM) | Cc1cccc(C(=O)OCC(=O)NCC2COc3ccccc3O2)c1 (stereo not given)
> 48.2 µg/mL | O=C1c2ccccc2C(=O)N1OS(=O)(=O)c1ccc(F)cc1
28.2 µg/mL (≈ 89.7 µM) | CC1CCN(C(=O)c2cc(-c3ccc4c(c3)OCO4)on2)CC1
> 59.6 µg/mL | O=C(CN1C(=O)NC2(CCOc3ccccc32)C1=O)NCCc1ccc(F)cc1 (stereo not given)
31.5 µg/mL (≈ 99.9 µM) | Cc1ccc(C)c(OCCC(=O)NCCc2ccc(F)cc2)c1
